In patent US9014457B2, “Quantifying cell death” (UCL Business PLC, priority 2009, dated 2015):
Entries after “also recorded” stand apart in the source; their conditions may differ. Where a name gives a salt, the structure may show the parent alone. Read-outs that look alike come from different tables or passages of the source. Where a SMILES comes first, the peptide text is derived from it. The star is where a group is joined. Cbz = O=C(OCc1ccccc1)*

Experiments:
RGC [1] = details: in vitro and in vivo; cited from earlier work
RGCs [2] = details: rat; cited from earlier work
[3] = tested on: neurons within the contra-lateral Lateral geniculate Body; details: in vivo; cited from earlier work
[4] = phase III, patients with OAG; cited from earlier work
neuronal cells = details: in vitro; cited from earlier work
RGC [5] = details: in vivo; cited from earlier work
[6] = tested on: astrocyte cultures (NADPH oxidase); details: cited from earlier work
[7] = in vivo; cited from earlier work
RGCs [8] = details: in vitro and in vivo; cited from earlier work
RGC [9] = experiment: Abeta (Aβ25-35)-induced RGC death model, in vivo cSLO imaging with annexin V and PI; set-up: species or system mouse
Experimental: (§1) For the analysis of Abeta, freshly made Aβ25-35 (Sigma-Aldrich, 3.40 nmol) (Dahlgren et al., 2002) was intravitreally injected into C57 mice (n=10) (Maass et al., 2007). Animals were imaged at 72 hours. For AD 3× Tg-AD studies, 4 eyes (all female, 14 months) with 2 eyes from aged control mice (PS1KI; female, 18 months) were assessed. 3× Tg-AD and control PS1KI mice were obtained from a colony (maintained at CeSI) established after a generous gift of Frank Laferla. Intravitreal phorbol myristate acetate (1 μl of 10 μg/ml) was administered to left eyes of 3× Tg-AD animals, at the same time as annexin V and PI.
(§2) Using a method the inventors have recently described, rats were given 2.5 μg of intravitreal Alexa Fluor 488 labelled annexin V in 5 μl PBS for identification of RGC apoptosis, 2 hours before in vivo imaging (Cordeiro et al., 2004). For mice, the inventors used 1 μl of a 0.25 mg/ml solution of IR-labelled annexin (Annexin-IR) in intravitreal injections as previously described (Schmitz-Valckenberg et al., 2008).
(§3) In order to identify necrotic RGCs in rats (2 μl) and mice (1 μl), propidium iodide (PI; 0.4 mg/ml, 1% solution, Sigma-Aldrich, Dorset UK) was administered intravitreally at the same time as annexin, 2 hours before in vivo imaging. PI intercalates into nucleic acids, binding to double-stranded DNA, but only crosses the plasma membrane of non-viable cells. Cells that have lost membrane integrity are thus identified by fluorescent red PI staining throughout the nuclei.
(§4) In mice, the inventors used instrumentation as previously described (Maass et al., 2007; Schmitz-Valckenberg et al., 2008), with a modified cSLO (Heidelberg Retina Angiograph 2, Heidelberg Engineering, Dossenheim, Germany) and a wide-field lens (55°). The fluorescein angiogram (488 nm argon laser) and indocyanine green (IR 790 nm diode laser) settings were used to detect PI and IR-labelled annexin respectively. The same software was used to analyse video sequenced images as described before with whole retinal monochrome images from each eye recorded and colourised. Dual-color images were produced by combining each of the grayscale images from the cSLO into the red (PI), and green (IR annexin) of an RGB color image.
The left eye of each animal was treated with intravitreal 0.40 nmol MK801 at the same time as Abeta. Wide-angle retinal images were recorded 2 hours following intravitreal annexin (green) and PI (red), as previously described (Guo at al., 2006).
To assess the relative levels of early apoptosis, late apoptosis and necrosis the inventors studied the co-localization of PI and annexin V using ImageJ software with the Intensity Correlation Analysis plugin (Li et al., 2004). Colour and raw scatter plots of annexin and PI fluorescence intensity were constructed from plugin-generated data for each animal. Corresponding scatter plots (blue) from the eyes shown in FIG. 8a-b are illustrated in FIG. 8c-d. The data were analysed in a similar manner to data derived by in vitro FACS analysis, with four quadrants (midlines shaded in colour overlay as red, green, blue and yellow) enabling separation of the different phases of cell death as annexin V positive (early apoptosis, green), annexin V and PI double positive (late apoptosis, yellow) and PI positive (necrosis, red). Thresholds were set automatically by the plugin for each analysis of each eye. The inventors then used fluorescence intensity counts from the raw scatter plots to quantify each phase of cell death.
To further assess the analytical power of the technique, the inventors next investigated whether the level of oxidative stress in Abeta-treated eyes influenced the phase of cell death and whether this was possible to visualize in vivo. […] FIG. 8f-g are taken from the right untreated (F) and left PMA-treated (G) eye of an animal treated 72 hours previously with 3.40 nmol Aβ25-35. […]

RGC [10] = experiment: Chronic ocular hypertensive (OHT) experimental glaucoma model, in vivo imaging with annexin V and PI; set-up: species or system rat
Excerpt: For the experimental glaucoma studies, the inventors used an established model of ocular hypertension. 18 rats underwent surgery to elevate intraocular pressure (IOP) by injection of hypertonic saline solution (1.8 M) into two episcleral veins as previously described (Cordeiro et al., 2004). Contralateral, unoperated eyes acted as controls. Animals were imaged at 0, 3, 8, and 16 weeks, with at least 3 animals at each time point being killed for histology immediately after imaging. A subgroup of animals (n=4) was treated at the time of surgery with the NMDA antagonist MK801 (0.6 nmol; Tocris Cookson Ltd, Bristol UK). These animals were imaged at 3 weeks and then killed for histology.
as §2, §3
All rats had in vivo retinal imaging performed at regular and set intervals after experimental treatment, using a prototype Zeiss confocal scanning laser ophthalmoscope (cSLO), as previously described (Cordeiro et al., 2004; Maass et al., 2007). Imaging was performed under general anaesthesia with animals being held in a stereotaxic frame, with their pupils dilated. Different lasers and filters were used for the different fluorochromes: for excitation of Alexa Fluor 488 an Argon laser wavelength of 488 nm, and a solid state photodetector with a 521 nm cut-off filter and a 550 nm cut-on filter was employed; for DiI, a diode-pumped crystal green laser with a wavelength of 532 nm was used with 550 nm cut-off and 600 nm cut-on filters; the same laser was used for PI visualization but with a 650 nm cut-off. […] Colour and raw scatter plots of annexin and PI fluorescence intensity were constructed, so data could be analysed in a similar manner to data derived by in vitro FACS analysis. […] Fluorescence intensity counts derived from raw scatter plots were used to quantify each phase of cell death. […]

RGC [11] = details: in comparison to the controls; cited from earlier work
NMDA receptors = details: cited from earlier work
Bad = details: in vivo; cited from earlier work
[12] = tested on: ROS production in the retina; experiment: ROS production in mouse retina in vivo visualized with DHE; details: intravitreal; vs vehicle/control eye
Experimental: FIG. 12B. The effects of rotenone on ROS production in mouse retina in vivo. ROS production visualized with DHE (dihydroethidium). DHE is a non-fluorescent agent, reacting with ROS intracellularly to produce a fluorescent oxidative product which can be detected. Rotenone (50 uM, 1 ul) was intravitreally injected into the one eye (C57) and the same volume of vehicle (saline) injected into the contralateral eye. DHE (1 ul) was then injected intravitreally and both eyes imaged to detect ROS production using a SLO machine.
FIG. 12C. The effects of PMA in producing ROS in mouse retina in vivo. PMA (50 ug/ml, 1 ul) was injected intravitreally into the one eye and saline (1 ul) into the contralateral eye. DHE (1 ul) was simultaneously injected for detecting ROS production.
FIG. 12D. The effects of Aβ25-35 on ROS production in vivo. DHE was intravitreally injected into the both eyes of a mouse to detect ROS production.

RGC [13] = experiment: Alzheimer Triple Transgenic (3× Tg-AD) model and aged PS1KI control, retinal cell death imaging; assay type: in vivo, mouse
Experimental: as §1, §2, §3, §4
However, in these studies aged (27 month) wild type congeners were not assessed.
The inventors next investigated whether oxidative stress in AD eyes influenced the phase of cell death and whether this could be visualized in vivo. As intraneuronal Aβ accumulation and extracellular Abeta plaques are characteristics of this model (LaFerla et al., 2007), the inventors hypothesised that the addition of PMA would reveal whether the level of Abeta in this transgenic mouse is sufficient to modulate the retinal response in vivo (Abramov et al., 2005). […]

retinal neurons = details: in vitro; cited from earlier work
RGCs [14] = details: cited from earlier work
RGC [15] = details: compared with MK-801; cited from earlier work
RGC [16] = details: rat, in vivo; cited from earlier work
[17] = Abeta + MK801 vs Abeta alone, 72 h
[18] = 3 weeks after elevated IOP induction

CC(C)C[C@@H](C=O)NC(=O)[C@H](CC(C)C)NC(=O)[C@@H](NC(=O)OCc1ccccc1)C(C)C [Z-VLL-CHO, N-benzyloxycarbonyl-Val-Leu-leucinal] (Cbz-Val-Leu-Leu-aldehyde)
RGC apoptosis (RGC [1]): reduce

glatiramer acetate [Cop-1]
activity on RGCs in vivo (RGCs [2]): neuroprotective activity

CC12CC3CC(C)(C1)CC(N)(C3)C2 [memantine, 1-amino-3,5-dimethyl-adamantane]
shrinkage of neurons (LGB layers 1, 4, and 6) [3]: reduction
primary end point [4]: ineffective
NMDA-induced neuronal death (neuronal cells): reduction
RGC loss (RGC [5]): decreased

c1ccc2c(c1)[I+]c1ccccc1-2 [DPI]
PMA-induced lucigenin response [6]: blocked

Nc1nc2ccc(OC(F)(F)F)cc2s1 [Riluzole]
ERG wave recovery [7]: enhance
pressure-induced apoptosis [7]: prevent or decrease

C[C@]12N[C@H](Cc3ccccc31)c1ccccc12 [MK801, (+)-5-methyl-10,11-dihydro-5H-dibenzo[a,d]cyclohepten-5,10-imine maleate]
RGC protection (RGCs [8]): protect RGCs
number of annexin V and PI positive cells (RGC [9]; 72 hours after intravitreal 3.40 nmol Aβ25-35, MK801 0.40 nmol intravitreal at the same time as Abeta, vs Abeta-only fellow eye): reduces
necrosis (PI+) (RGC [9]; [17]): clearly reduced; also recorded: reducing
number of cells in late phase apoptosis (Anx+/PI+) (RGC [9]; [17]): clearly reduced; also recorded: reducing
number of early phase apoptotic cells (Anx+) (RGC [9]; [17]): small increase
overall levels of cell death (Total) (RGC [9]; Abeta + MK801 vs Abeta alone, 72 h, co-localization scatter plot quantification): clearly reduced
late phase apoptosis (Anx+/PI+) (RGC [10]; [18]): significant reduction; also recorded: significant decrease
levels of necrosis (PI+) (RGC [10]; [18]): significant reduction; also recorded: significant decrease
number of dying cells (Total cell death markers) (RGC [10]; 3 weeks after elevated IOP induction, p<0.05): significant reduction
numbers of annexin V and PI positive (apoptotic and necrotic) cells (RGC [10]; MK801 0.6 nmol at the time of surgery, 3 weeks, vs untreated OHT): significantly reduced
number of apoptotic RGCs (RGC [11]): reduction
neurotoxicity (NMDA receptors): neurotoxic effect
Bad expression (Bad): decreasing

superoxide dismutase
PMA-induced lucigenin response [6]: reversed

CCCCCCCCCCCCCC(=O)O[C@@H]1[C@@H](C)[C@@]2(O)[C@@H](C=C(CO)C[C@]3(O)C(=O)C(C)=C[C@@H]23)[C@@H]2C(C)(C)[C@]12OC(C)=O [PMA, phorbol myristate acetate]
ROS production in the retina (DHE fluorescence) [12]: significantly higher levels of ROS production
ROS generation (lucigenin) ([6]; 1 μg/ml): increase
overall levels of cell death (Total) (RGC [9]; Abeta + PMA vs Abeta, all treated animals, p<0.05): significantly (p<0.05) increases
number of cells in the early phase of apoptosis (Anx+) (RGC [9]; Abeta + PMA vs Abeta, p<0.05): significantly (p<0.05) increased; also recorded: significant (p<0.05) increase
annexin V (and PI) positive cells (RGC [9]; PMA 0.016 nmol with annexin V and PI, 72 hours after 3.40 nmol Aβ25-35, imaging 2 hours later, vs vehicle eye): increased
late apoptosis (Anx+/PI+) (RGC [13]; 3× Tg-AD model, p<0.05): decreased
increase in early phase apoptosis (Anx+) (RGC [13]; 14-month 3× Tg-AD, 2 hours after intravitreal PMA with annexin and PI): 61.4%
increase in early phase apoptosis (Anx+) (RGC [13]; aged control (PS1KI, 18 month), 2 hours after intravitreal PMA): 30.3%
necrosis (RGC [13]; control eyes, p<0.05): decreased

COc1ccc2[nH]cc(CCNC(C)=O)c2c1 [Melatonin]
protection of retinal neurons (retinal neurons): protected
effect on RGCs in vivo (RGCs [14]): neuroprotective effect

O=[N+]([O-])c1cc2nc(O)c(O)nc2cc1[N+](=O)[O-] [DNQX]
RGC survival (RGC [15]): greater enhancement

Geranylgeranylacetone
RGC loss (RGC [16]): marked reduction
expression of HSP-72 (RGC [16]): increase
